Results as given in PubChem BioAssay AID1259411 (Chemical Carcinogenesis Research Information System (CCRIS), 2018).
Activity calls are given as the source filed them. The rule behind the calls is not given here.

Tested on: rodent carcinogenicity bioassays, tumor incidence
Assay: CCRIS carcinogenicity studies
Settings: Dose: 0
Method in brief: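 Archive of carcinogenicity, mutagenicity, tumor promotion and tumor inhibition results drawn from journals, NCI reports and other sources, expert-reviewed; covers 1985-2011 and is no longer updated.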

C[C@@H]1Cc2c(Cl)cc(C(=O)NC(Cc3ccccc3)C(=O)O)c(O)c2C(=O)O1 (some centres not stated)
carcinogen call (Species: MOUSE, Strain/Sex: ALBINO/MALE,FEMALE, Route: GAVAGE, 0.25 ML OF 50 PPM SOLUTION 2/WK FOR 20 WK (STUDY DURATION: 20 WK), Tumor Site: Type of Lesion: KIDNEY: CARCINOMA): active; positive | carcinogen call (Species: MOUSE, Strain/Sex: CD-1/FEMALE, Route: ORAL, 0.031, 0.125, 0.5% IN DIET FOR 78 WK (STUDY DURATION: 78 WK), 0.031, 0.125, 0.5% IN DIET FOR 78 WK (STUDY DURATION: 78 WK)): inactive; negative | carcinogen call (Species: MOUSE, Strain/Sex: CD-1/MALE, Route: ORAL, 0.031, 0.125, 0.5% IN DIET FOR 78 WK (STUDY DURATION: 78 WK), 0.031, 0.125, 0.5% IN DIET FOR 78 WK (STUDY DURATION: 78 WK)): inactive; negative | carcinogen call (Species: MOUSE, Strain/Sex: DDD/MALE, Route: ORAL, 25 PPM IN DIET FOR 70 WK (STUDY DURATION: 70 WK), Tumor Site: Type of Lesion: KIDNEY: RENAL CELL TUMOR, LIVER: HEPATOMA): active; positive | carcinogen call (Species: MOUSE, Strain/Sex: DDY/MALE, Route: ORAL, 7.05, 17.24, 26.27, 33.16, 35.86, 42.67 MG/MOUSE (TOTAL DOSE) ADMINISTERED AT A DOSE OF 50 PPM IN DIET FOR 0, 5, 10,, 7.05, 17.24, 26.27, 33.16, 35.86, 42.67 MG/MOUSE (TOTAL DOSE) ADMINISTERED AT A DOSE OF 50 PPM IN DIET FOR 0, 5, 10,, Tumor Site: Type of Lesion: LIVER: HEPATOMA, KIDNEY: RENAL CELL TUMOR): active; positive | carcinogen call (Species: MOUSE, Strain/Sex: SWISS/MALE,FEMALE, Route: GAVAGE, 0.25 ML OF A 50 PPM SOLUTION 2/WK FOR 20 WK (STUDY DURATION: 20 WK), Tumor Site: Type of Lesion: KIDNEY: CARCINOMA): active; positive | carcinogen call (Species: RAT, Strain/Sex: DA/FEMALE, Route: GAVAGE, 0.4 MG/KG BW IN SODIUM BICARBONATE 3/WK FOR DURATION OF STUDY (STUDY DURATION: LIFESPAN)): inactive; negative | carcinogen call (Species: RAT, Strain/Sex: DA/MALE, Route: GAVAGE, 0.4 MG/KG BW IN SODIUM BICARBONATE 3/WK FOR DURATION OF STUDY (STUDY DURATION: LIFESPAN), Tumor Site: Type of Lesion: KIDNEY: ADENOCARCINOMA, ADENOMA): active; positive | carcinogen call (Species: RAT, Strain/Sex: F344/FEMALE, Route: GAVAGE, 21, 70, 210 UG/KG IN CORN OIL 5 D/WK FOR 103 WK (STUDY DURATION: 105 WK), 21, 70, 210 UG/KG IN CORN OIL 5 D/WK FOR 103 WK (STUDY DURATION: 105 WK), Tumor Site: Type of Lesion: KIDNEY TUBULE: ADENOMA, CARCINOMA, MAMMARY GLAND: FIBROADENOMA, ADENOMA OR FIBROADENOMA OR ADENOCARCINOMA): active; positive | carcinogen call (Species: RAT, Strain/Sex: F344/MALE, Route: GAVAGE, 21, 70, 210 UG/KG IN CORN OIL 5 D/WK FOR 103 WK (STUDY DURATION: 106 WK), 21, 70, 210 UG/KG IN CORN OIL 5 D/WK FOR 103 WK (STUDY DURATION: 106 WK), Tumor Site: Type of Lesion: KIDNEY TUBULE: ADENOMA, CARCINOMA): active; positive | carcinogen call (Species: RAT, Strain/Sex: LEWIS/FEMALE, Route: GAVAGE, 0.4 MG/KG BW IN SODIUM BICARBONATE 3/WK FOR DURATION OF STUDY (STUDY DURATION: LIFESPAN), Tumor Site: Type of Lesion: KIDNEY: ADENOCARCINOMA): active; positive | carcinogen call (Species: RAT, Strain/Sex: LEWIS/MALE, Route: GAVAGE, 0.4 MG/KG BW IN SODIUM BICARBONATE 3/WK FOR DURATION OF STUDY (STUDY DURATION: LIFESPAN), Tumor Site: Type of Lesion: KIDNEY: ADENOCARCINOMA): active; positive
